According to patent US20080280851A1 (Clavis Pharma AS, priority 2005, published 2008):
Where two headings read alike, the source gives them in different places. Marks after values point to notes of the source that are not given here.

Tests used:
[1] = system: Colon 6044 (human colon carcinoma); assay: Antitumour activity in Co6044 after oral administration, different dosing schedules (Table 4); type: in vivo, NCR: nu/nu female mice; conditions: for BWC / Toxic deaths (d) / Optimum T/C (on day): Oral; for Toxic deaths (d): 7 mice
Excerpt: Antitumour Activity of Elaidic Acid (5′)-Gemcitabine Ester in Co6044 after Oral Administration

[2] = Maximum tolerated dose, every third day repeated five times; type: in vivo, mice; conditions: administered every third day
Excerpt: This is shown below by the experiments presented in table 1 and table 2 using different mice strains and also different human colon xenografts.

[3] = system: Co6044 (human colon carcinoma); assay: Antitumour activity in human colon cancer xenograft Co6044, IP treatment; conditions: for antitumor effect: IP every third day for five times, ester 40 mg/kg, gemcitabine 120 mg/kg; for Toxic deaths (d): 8 mice
Excerpt: (§1) Treatment started when the tumours reached a mean volume of 100 mm^3.

[4] = system: Colon 6044 (human colon carcinoma); assay: Antitumour activity in Co6044 after oral administration (Table 3); conditions: for BWC D13 / Toxic deaths (d) / Optimum T/C (on day): Oral, Q3 × 5
[5] = system: Colon 5776 (human colon carcinoma); assay: Antitumour activity in human colon xenograft Co5776, IP treatment; conditions: for Toxic deaths (d): D8, 11, 14, 17, 20, 8 mice; for antitumour activity in terms of reductions in tumour growth: gemcitabine 120 mg/kg, elaidic acid (5′)-gemcitabine ester 40 mg/kg, FIG. 1
Excerpt: (§2) Human colon cancer Co5776 was inserted to Ncr:nu/nu female mice subcutaneously, and treatment started when tumours reached a mean volume of 100 mm^3.

[6] = system: Colon 5776 (human colon carcinoma); conditions: mouse, in vivo, ip, 120 mg/kg
Excerpt: as §2

[7] = system: Colon 6044 (human colon carcinoma); conditions: mouse, in vivo, po
[8] = system: Co6044 (human colon carcinoma); conditions: mouse, in vivo, ip, 120 mg/kg
Excerpt: as §1

[9] = IP, 40 mg/kg, D8, 11, 14, 17, 20
[10] = IP, 120 mg/kg, D8, 11, 14, 17, 20

CCCCCCCC/C=C/CCCCCCCC(=O)OC[C@H]1O[C@@H](n2ccc(N)nc2=O)C(F)(F)[C@@H]1O [Elaidic acid (5′)-gemcitabine ester, elaidic acid (5′)-gemcitabine ester]
BWC ([1]; 5 mg/kg, D7-11): −3%
Toxic deaths (d) ([1]; 5 mg/kg, D7-11): 0
Optimum T/C (on day) ([1]; 5 mg/kg, D7-11, on day 28): 10 (28)* %
BWC ([1]; 10 mg/kg, D7, 10, 13, 16, 19): −1%
Toxic deaths (d) ([1]; 10 mg/kg, D7, 10, 13, 16, 19): 0
Optimum T/C (on day) ([1]; 10 mg/kg, D7, 10, 13, 16, 19, on day 24): 35 (24)* %
BWC ([1]; 10 mg/kg, D7-11): −5%
Toxic deaths (d) ([1]; 10 mg/kg, D7-11): 0
Optimum T/C (on day) ([1]; 10 mg/kg, D7-11, on day 17): 8 (17)* %
BWC ([1]; 15 mg/kg, D7, 10, 13, 16, 19): −1%
Toxic deaths (d) ([1]; 15 mg/kg, D7, 10, 13, 16, 19): 0
Optimum T/C (on day) ([1]; 15 mg/kg, D7, 10, 13, 16, 19, on day 24): 27 (24)* %
BWC ([1]; 20 mg/kg, D7, 10, 13, 16, 19): −3%
Toxic deaths (d) ([1]; 20 mg/kg, D7, 10, 13, 16, 19, death on day 17): 1 (17)
Optimum T/C (on day) ([1]; 20 mg/kg, D7, 10, 13, 16, 19, on day 24): 16 (24)* %
BWC ([1]; 50 mg/kg, D7, 14): 0%
Toxic deaths (d) ([1]; 50 mg/kg, D7, 14): 0
Optimum T/C (on day) ([1]; 50 mg/kg, D7, 14, on day 17): 22 (17)* %
BWC ([1]; 100 mg/kg, D7, 14): −4%
Toxic deaths (d) ([1]; 100 mg/kg, D7, 14, death on day 20): 1 (20)
Optimum T/C (on day) ([1]; 100 mg/kg, D7, 14, on day 24): 4 (24)* %
antitumour activity after oral administration ([1]; oral, all tested schedules): High dose dependent activity
significance of antitumour activity ([1]; oral, all the tested schedules): Significant antitumour activity
maximum tolerated dose [2]: ~40 mg/kg per injection
antitumor effect [3]: Excellent antitumor effect
Optimum T/C [3, 9]: 19* %
Toxic deaths (d) [3, 9]: 0
BWC D8-15 (body weight change) ([3]; IP, 40 mg/kg, D8, 11, 14, 17, 20, D8-15): −1
BWC D13 ([4]; 40 mg/kg): −7%
Toxic deaths (d) ([4]; 40 mg/kg, deaths on day 15): 2/8 (15)
Optimum T/C (on day) ([4]; 40 mg/kg, on day 27): 5 (27)* %
Optimum T/C (on day) ([4]; 60 mg/kg): Toxic
BWC D13 ([4]; 60 mg/kg): −9%
Toxic deaths (d) ([4]; 60 mg/kg, deaths on days 12-24): 6/8 (12-24)
Optimum T/C (on day) ([4]; 80 mg/kg): Toxic
BWC D13 ([4]; 80 mg/kg): −6%
Toxic deaths (d) ([4]; 80 mg/kg, deaths on days 16-22): 6/8 (16-22)
antitumour activity after oral administration ([4]; oral, 40 mg/kg): highly active
tolerability after oral administration ([4]; oral, 40 mg/kg): tolerable
BWC (body weight change) ([5]; 40 mg/kg, D8, 11, 14, 17, 20): −4%
Optimum T/C (volume of treated tumour versus volume of control tumour) ([5]; 40 mg/kg, D8, 11, 14, 17, 20): 17* %
Toxic deaths (d) ([5]; 40 mg/kg): 0
antitumour activity in terms of reductions in tumour growth [5]: high antitumour activity

Nc1ccn([C@@H]2O[C@H](CO)[C@@H](O)C2(F)F)c(=O)n1 [Gemcitabine, 2′,2′-difluorodeoxycytidine, reference compound]
BWC (body weight change) [6]: −5%
maximum tolerated dose [2]: approximately 120 mg/kg per injection
BWC D13 ([7]; 120 mg/kg): −16%
BWC D13 ([7]; 180 mg/kg): −22%
BWC D13 ([7]; 240 mg/kg): −21%
antitumor effect [3]: Excellent antitumor effect
Optimum T/C [3, 10]: 15* %
Toxic deaths (d) [3, 10]: 0
BWC D8-15 (body weight change) [8]: −3
Optimum T/C (volume of treated tumour versus volume of control tumour) ([5]; 120 mg/kg, D8, 11, 14, 17, 20): 17* %
Toxic deaths (d) ([5]; 120 mg/kg, death on day 18): 1 (18)
antitumour activity in terms of reductions in tumour growth [5]: high antitumour activity
